Data from US12447167B2, “GM-CSF-producing t-cell control agent and Th1/Th2 immune balance regulator” (National Center of Neurology and Psychiatry, priority 2014, dated 2025).

How the values were obtained:
[1] = tested on: IFN-γ; experiment: IFN-γ expression level of sorted CD4-positive memory T-cells of MS patients (ELISA of culture supernatant); assay type: in vivo, human; details: 0.3 mg single oral
Method: (§1) A single dose of compound 31, which is a synthetic glycolipid of the present invention, described in the first aspect was orally administered to each of 2 MS patients (subjects) shown in Table 2 above after obtainment of informed consent. The dose was set to 0.3 mg per person.
(§2) Subsequently, T-cell subfractions were prepared from the peripheral blood of each subject by using the density gradient centrifugation method. First, a total of 20 mL of blood was collected from the vein of each subject 24 hours (1st day), 48 hours (2nd day), 72 hours (3rd day), 168 hours (7th day), and 192 hours (8th day) after the administration of compound 31 by using two 10-mL heparin sodium-containing vacuum blood collection tubes. For a control, 20 mL of blood was similarly collected from the vein of each subject one day before the administration of compound 31.
(§3) The collected PBMCs were stained with antibodies by the following method. First, 10 μL of a solution consisting of 20 μL of MACS buffer, 0.25 μL of APC-Cy7-anti-CD3 antibody (BioLegend, Inc.), 1 μL of PB-anti-CD4 antibody (BioLegend, Inc.), 1 μL of PerCP-Cy5.5-anti-CD45RA antibody (BioLegend, Inc.), and 1 μL of PC7-anti-CD56 antibody (Beckman Coulter, Inc.) was added to 6×10^6 cells of PBMCs, thoroughly mixed by vortexing, and then left on ice for 20 minutes. CD56 is a detection marker of cells having NK activity, and CD3^−CD56^− cells indicate being antigen-presenting cells (APCs). […]
(§4) mCD4T and APC obtained by the sorting were each suspended in a medium consisting of 500 mL of RPMI1640 (GIBCO/Thermo Fisher Scientific Inc.), 5 mL of glutamine (200 mM, Wako Pure Chemical Industries, Ltd.), 5 mL of Pen/strep (10,000 U/mL, GIBCO/Thermo Fisher Scientific Inc.), 0.5 mL of 2-mercaptoethanol (GIBCO/Thermo Fisher Scientific Inc.), and 50 mL of 10% (v/v) Cellect FETAL BOVINE SERUM (MP Biomedicals, LLC), and the number of cells was measured. […]
(§5) After the culture, a culture supernatant was collected, and IFN-γ, IL-4, IL-17, and GM-CSF were measured by the ELISA method. […]

[2] = tested on: IL-17; experiment: IL-17 expression level of sorted CD4-positive memory T-cells of MS patients (ELISA of culture supernatant); assay type: in vivo, human; details: 0.3 mg single oral
Method: as §1, §2, §3, §4, §5

[3] = Disposition after single oral dose, mouse; assay type: in vivo; set-up: concentration in blood: unit not given here; details: male mouse, 5 mg/kg single oral, 14C-labeled, fasting
Method: (§6) After a single dose of compound 31 labeled with ^14C was orally administered at a predetermined dose to each of a male mouse, a male rat, and a male cynomolgus monkey under fasting conditions, the concentration in blood was measured after a lapse of a given time, and parameters such as maximum plasma concentration Cmax, time Tmax to reach the maximum plasma concentration, half-life t1/2, area under curve AUC0-∞, mean retention time MRT0-∞, and bioavailability BA were calculated. The concentration in blood in humans (normal subjects) was measured and each of the parameters was calculated, in the similar manner as above except that ^14C-unlabeled compound 31 was used.
(§7) In the tables, “N.D.” means not detected.

[4] = Disposition after single oral dose, cynomolgus monkey; assay type: in vivo; details: male cynomolgus monkey, 10 mg/kg single oral, 14C-labeled, fasting
Method: as §6, §7

AUC(0-inf) ([3]; blood): 2920 ng·h/mL
AUC(0-t) ([3]; blood): 2900 ng·h/mL
half-life ([3]; blood): 11 h
MRT inf ([3]; blood, read-out: MRT0-∞): 15.4 h
BA [3]: 1.01%
Rate of absorption [3]: 1.36%
concentration in blood ([3]; 4 h): 46.5
concentration in blood ([3]; 8 h): 209
concentration in blood ([3]; 12 h): 142
concentration in blood ([3]; 24 h): 33
concentration in blood ([3]; 48 h): 5.21
concentration in blood ([3]; 72 h): 1.62
Cmax ([3]; plasma): 209 ng/mL
Tmax ([3]; plasma): 8 h
AUC(0-inf) ([4]; blood): 2380 ng·h/mL
AUC(0-t) ([4]; blood): 2260 ng·h/mL
half-life ([4]; blood): 39.2 h
MRT inf ([4]; blood, read-out: MRT0-∞): 60.9 h
BA [4]: 0.11%
Rate of absorption [4]: 0.41%
concentration in blood ([4]; 4 h): 1.92
concentration in blood ([4]; 8 h): 9.59
concentration in blood ([4]; 12 h): 33.4
concentration in blood ([4]; 24 h): 35.2
concentration in blood ([4]; 48 h): 26.5
concentration in blood ([4]; 72 h): 13
concentration in blood ([4]; 96 h): 7.1
concentration in blood ([4]; 120 h): 4.21
concentration in blood ([4]; 144 h): 2.83
concentration in blood ([4]; 168 h): 2.05
Cmax ([4]; plasma): 39.4 ng/mL
Tmax ([4]; plasma): 28 h
SMILES: CCCCCCCCCCCCCCCCCCCCCCCC(=O)NC(COC1OC(CO)C(O)C(O)C1O)[C@H](O)C(O)CCCCC (stereo in doubt) [compound 31, (2S,3S,4R)-1-O-(α-D-galactosyl)-2-(N-tetracosanoylamino)-1,3,4-nonanetriol]
IFNγ expression level ([1]; day 8, MBP stimulation (culture condition B), day −1 value 28528.18): 7006.30
IFNγ expression level ([1]; day 8, OVA stimulation (culture condition A), day −1 value 23489.34): 5032.43
change of expression level of IFN-γ ([1]; day8 vs day-1): decreased
IL-17 expression level ([2]; day 8, MBP stimulation, day −1 value 916.90): 491.24
IL-17 expression level ([2]; day 8, OVA stimulation, day −1 value 666.56): 158.50
change of expression level of IL-17 ([2]; day8 vs day-1): decreased
